# Experimental data reported in patent US20090060997A1, “PROCESS FOR PRODUCING A PHARMACEUTICAL PREPARATION FOR THERAPEUTIC TREATMENT OF ENDOMETRIOSIS CONTAINING A COMBINATION OF A GESTAGEN AND (6S)-5-METHYLTETRAHYDROFOLATE” (priority 2007, published 2009).
# Tests used:
# [1] = design: species or system women; conditions: in vivo
# Source text: (§1) 128 patients were randomly assigned to the LA group and 124 patients to the DNG group. The efficacy of the therapy was examined, among other ways, with the aid of a pain scale (Visual Analog Scale, VAS) questionnaire that was filled out by the patient.
# [2] = tested on: women with laparoscopically diagnosed endometriosis; test: Clinical study in endometriosis: pain scale (Visual Analog Scale, VAS) questionnaire; format: in vivo; conditions: 6 months; for reduction in pain (VAS) at the end of the treatment compared to the beginning of the study: DNG 2 mg/day orally, LA 3.75 mg s.c. every 4 weeks
# Source text: as §1
# ovulation = conditions: daily dose; cited from earlier work
# [3] = tested on: persons affected with endometriosis; conditions: 2 mg of dienogest daily for 24 weeks; cited from earlier work
SMILES,drop in bone density [1],reduction in pain (VAS) at the end of the treatment compared to the beginning of the study [2] [mm],ovulation-inhibiting dose (ovulation) [mg],result of the treatment of endometriosis [3],statistical analysis of pain reduction versus LA ([2]; DNG 2 mg/day orally vs LA 3.75 mg s.c. every 4 weeks)
"CCNC(=O)[C@@H]1CCCN1C(=O)[C@H](CCCNC(=N)N)NC(=O)[C@H](CC(C)C)NC(=O)[C@@H](CC(C)C)NC(=O)[C@H](Cc1ccc(O)cc1)NC(=O)[C@H](CO)NC(=O)[C@H](Cc1c[nH]c2ccccc12)NC(=O)[C@H](Cc1c[nH]cn1)NC(=O)[C@@H]1CCC(=O)N1 [LA, leuprorelin acetate]",4%,−46.0,–,–,–
CC(=O)O[C@]1(C(C)=O)CC[C@H]2[C@@H]3C=C(Cl)C4=CC(=O)CC[C@]4(C)[C@H]3CC[C@@]21C [chlormadinone acetate],–,–,1.7,–,–
CC(=O)O[C@]1(C(C)=O)CC[C@H]2[C@@H]3C=C(Cl)C4=CC(=O)[C@@H]5C[C@@H]5[C@]4(C)[C@H]3CC[C@@]21C [cyproterone acetate],–,–,1,–,–
"C[C@]12CCC3=C4CCC(=O)C=C4CC[C@H]3[C@@H]1CC[C@@]2(O)CC#N [dienogest, 17α-cyano-methyl-17-β-hydroxy-estra-4,9-dien-3-one]",no reduction in bone density,−47.5,–,comparable to that with Danazol or with a GnRH agonist,not inferior to LA
